One data set addresses human PANK3 (Homo sapiens, UniProt Q9H999). The settings on record: tested up to 10 μM.
Data set [1] is described as follows: PAMPA passive permeability. Type of data set: in vitro ADME. For orientation: In PAMPA a lipid-coated filter parts donor from acceptor wells.
Data set [2] concerns Plasma Protein. The settings on record: human; previously determined ref 8; cited from earlier work.
For data set [3], the system named is Plasma Protein. The settings on record: mouse; previously determined ref 8; cited from earlier work.
For the next data set, the system named is Caco2. As to conditions: previously determined ref 8; cited from earlier work.
For data set [4] the following is noted: mouse, rat, and human plasma; previously determined ref 8; cited from earlier work.
Data set [5] relates to Plasma Protein. The settings on record: rat; previously determined ref 8; cited from earlier work.
For data set [6] the following is noted: passive permeability; previously determined ref 8; cited from earlier work.

Where two headings read alike, the source gives them in different places.

Sequence of human PANK3 (Q9H999 whole entry): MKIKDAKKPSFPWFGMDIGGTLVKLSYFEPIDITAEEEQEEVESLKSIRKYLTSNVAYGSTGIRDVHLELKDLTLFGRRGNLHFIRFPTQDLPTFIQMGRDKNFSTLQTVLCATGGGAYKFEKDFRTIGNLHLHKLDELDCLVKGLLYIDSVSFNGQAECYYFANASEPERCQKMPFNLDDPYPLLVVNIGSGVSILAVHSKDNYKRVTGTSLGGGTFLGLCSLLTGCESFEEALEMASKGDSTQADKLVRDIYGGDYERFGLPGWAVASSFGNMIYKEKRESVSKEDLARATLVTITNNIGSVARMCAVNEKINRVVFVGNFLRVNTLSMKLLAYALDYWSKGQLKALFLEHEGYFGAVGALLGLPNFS

In the case of `N#Cc1ccc(N2CCN(C(=O)Nc3ccc(Br)cc3)CC2)nc1` [Compound 14, N-(4-bromophenyl)-4-(5-cyanopyridin-2-yl)piperazine-1-carboxamide], the “PANK3 inhibitory activity in words” value on human PANK3 was “inactive”.

Consider `CC(C)c1ccc(NC(=O)N2CCN(c3ccc(C#N)nn3)CC2)cc1` [Compound 56, 4-(6-cyanopyridazin-3-yl)-N-(4-isopropylphenyl) piperazine-1-carboxamide], for which the PAMPA in data set [1] is 316 1 × 10^−6 cm/s.

Take `CC(C)(C)c1ccc(NC(=O)N2CCN(c3ccc(C#N)cn3)CC2)cc1` [Compound 1, N-(4-(tert-butyl)phenyl)-4-(5-cyanopyridin-2-yl) piperazine-1-carboxamide]: the PAMPA in data set [1] is given as 1232 1 × 10^−6 cm/s.

Consider `N#Cc1ccc(N2CCN(C(=O)Nc3ccc(C(F)(F)F)cc3)CC2)nc1` [Compound 18, 4-(5-cyanopyridin-2-yl)-N-(4-(trifluoromethyl)phenyl)piperazine-1-carboxamide], for which the “PANK3 inhibitory activity in words” value at human PANK3 is “inactive”.

Take `CCc1ccc(NC(=O)N2CCN(c3ccc(C#N)cn3)CC2)cc1` [Compound 3, 4-(5-cyanopyridin-2-yl)-N-(4-ethylphenyl)piperazine-1-carboxamide]: the “PANK3 inhibitory activity in words” value at human PANK3 is recorded as “did not show activity”.

Consider `CC(C)c1ccc(C(=O)CN2CCN(c3ccc(C#N)cn3)CC2)cc1` [Compound 32, 6-(4-(2-(4-isopropylphenyl)-2-oxoethyl)piperazin-1-yl)nicotinonitrile], for which, at human PANK3, the “PANK3 inhibitory activity in words” value is recorded as “loss of activity”.

With `CC(C)c1ccc(C(=O)N2CCN(c3ccc(C#N)cn3)CC2)cc1` [Compound 28, 6-(4-(4-isopropylbenzoyl)piperazin-1-yl) nicotinonitrile], the “PANK3 inhibitory activity in words” value at human PANK3 is on record as “complete loss of activity”.

For the compound `CCCCc1ccc(NC(=O)N2CCN(c3ccc(C#N)cn3)CC2)cc1` [Compound 8, N-(4-butylphenyl)-4-(5-cyanopyridin-2-yl)piperazine-1-carboxamide], the “PANK3 inhibitory activity in words” value at human PANK3 is “did not show activity”.

Regarding `CC(C)c1ccc(CC(=O)N2CCN(c3ccc(C#N)nn3)CC2)cc1` [Compound 57, 6-(4-(2-(4-isopropylphenyl)acetyl)piperazin-1-yl) pyridazine-3-carbonitrile], the “Plasma Protein Binding” value in the data set on Plasma Protein [2] is 93%; in the data set with Plasma Protein [3], 92%; in the data set on Plasma Protein [5] it was 91%. In the data set on Caco2, the “Caco2 Permeability A/B” value is 30.2 ×10⁻⁶ cm/s. Also, the “Plasma Stability T1/2” value in data set [4] is >48 h. The PAMPA in data set [6] was 413 1 × 10^−6 cm/s.

The values above are taken from paper PMC8693618 (Bioorganic & medicinal chemistry, 2021).
